Target: T1, HIV-1 RT (recombinant) (Human immunodeficiency virus type 1 group M subtype B, UniProt P04585)
T1 construct: Reverse transcriptases (RT): • MMLV-RT (MMLV or MM; source: Fermentas); • HIV-1 RT (recombinant); purchased Worthington Biochemical Corp
Assay: Primer extension assay with HIV-1 RT
Assay type: biochemical
Design: key to Incorporation of three 2′F-araTTP / 2′F-araCTP (incorporation efficiency) / Enzymatic activity during primer extension reactions: ++++: excellent (no pausing observed); +++: very good (with slight pausing); ++: Good, full-length products with significant pausing; +: significant pausing, no full-length product but at least one 2′F-araN incorporation detected
Conditions: for Order of efficiency of incorporation / Incorporation of three 2′F-araTTP / 2′F-araCTP (incorporation efficiency) / Enzymatic activity during primer extension reactions: 37° C.; for Order of efficiency of incorporation: DNA template PF22 (T/U triphosphates) or PF24 (C triphosphates), three contiguous units; for Incorporation of three 2′F-araTTP / 2′F-araCTP (incorporation efficiency): DNA template PF22 (2′F-araTTP) or PF24 (2′F-araCTP); for Enzymatic activity during primer extension reactions: plus dATP, dGTP
Description: Primer extension assays were used to assess the incorporation of 2′F-araNTP on the various DNA templates (Table 1). The DNA primer (PF20) was first radioactively labeled at the 5′-hydroxyl terminus with a radioactive phosphorus probe and the enzyme T4 polynucleotide kinase (T4 PNK) (see Example 1 for General Methods). To assess the incorporation of 2′F-araNTPs, the primer and template were annealed, and the nucleoside 5′-triphosphates added in the presence of enzyme under the conditions specified in Table 2. Time points were obtained by analyzing small aliquots from the reaction mixture through polyacryamide gel electrophoresis (PAGE) and autoradiography.
Primer extension assays were used to assess the incorporation efficiency of contiguous 2′F-ara(T/C)TPs compared to 2′F-r(U/C)TP on a DNA template (e.g. PF22 or PF24). To this end, a DNA template (e.g. PF22: FIGS. 15, 16, 17A, 18, 21A; PF24: FIGS. 17B, 19, 20, 21B), primer and the appropriate NTPs (e.g. combination of dATP/dCTP/dGTP/ and NTP, where N=dT, 2′F-araT, 2′F-rU, or rU (FIGS. 15, 16, 17A, 18, 21A); or combination of dATP/dGTP/dTTP/ and NTP, where N=dC, 2′F-araC, 2′F-rC, or rC (FIGS. 17B, 19, 20, 21B)), were incubated in the presence one of MMLV-RT, 9N, HIV or DV polymerase. The protocols and conditions are described in Example 2 and Table 2.
Unless otherwise noticed in the Examples described below, the conditions used in the primer extension assays, such as dNTP concentration, reaction temperatures, concentration of Mg^2+, and reaction buffers (provided by the manufacturers, except for the HIV buffer which was prepared in-house) are shown in Table 2.
Primer extension assays were used to assess the incorporation of 2′F-araTTP on the DNA template (PF22). The DNA primer (PF20) was first radioactively labeled at the 5′-hydroxyl terminus with a radioactive phosphorus probe and the enzyme T4 polynucleotide kinase (T4 PNK) according to the manufacturer's specifications (MBI Fermentas Life Sciences, Burlington, ON). Incorporation of the ^32P label was accomplished in reaction mixtures consisting of DNA substrate (200 pmol), 2 μl loxreaction buffer (Buffer A for forward reaction: 500 mM Tris-HCl, pH 7.6 at 25° C., 100 mM MgCl2, 50 mM DTT, 1 mM spermidine and 1 mM EDTA), 1 μl T4 PNK enzyme solution (10 U/1 μl in a solution of 20 mM Tris-HCl, pH 7.5, 25 mM KCl, 0.1 mM EDTA, 2 mM DTT and 50% glycerol), 6 μl [γ-^32P]-ATP solution (6000 Ci/mmol, 10 mCi/ml; Amersham Biosciences, Inc.) and autoclaved sterile water to a final volume of 20 μl. The reaction mixture was incubated for about 45-60 min at 37° C., followed by a second incubation for 10 min at 95° C. to heat denature and deactivate the kinase enzyme. The solution was purified according to a standard protocol and the isolated yield of 5′-^32P-DNA following gel extraction averages 50%. The pure labeled samples were kept at −20° C. for future use.
Usually 2 or 3 folds of cold (unlabeled) DNA primer were combined with the radioactive primer. Then primer to template was mixed together with the final concentration at 85 nM for the primer and 255 nM for the template (i.e. the primer:template=1:3 molar ratio). The primer and template were heated at 95° C. for 5 min and annealed at 4° C. for at least two hours before use. In an Eppendorf tube, the following reagents, 5× or 10× buffer, nucleoside 5′-triphosphates (DATP, dGTP, dCTP, 2′F-araTTP at the same concentrations; see legend of FIG. 2), water, the primer and template mixture, were added together according to pre-calculated reaction volume (20 μL) and concentrations (see reaction conditions in Table 2). Mineral oil (20 μL) was usually used to prevent evaporation. The reaction mixture was incubated at either 37° C. or 55° C. and one of the various enzymes tested was added to initiate the primer extension reactions. […]

Cc1cn([C@H]2C[C@H](O)[C@@H](COP(=O)(O)OP(=O)(O)OP(=O)(O)O)O2)c(=O)[nH]c1=O [dTTP, reference compound]
Order of efficiency of incorporation: dTTP > 2′F-araTTP > 2′F-rUTP > UTP

O=c1ccn([C@@H]2O[C@H](COP(=O)(O)OP(=O)(O)OP(=O)(O)O)[C@@H](O)[C@H]2F)c(=O)[nH]1 [2′F-rUTP, 1-(2-deoxy-2-fluoro-β-D-ribo-furanosyl)uracil 5′-triphosphate, reference compound]
Order of efficiency of incorporation: dTTP > 2′F-araTTP > 2′F-rUTP > UTP

Cc1cn([C@@H]2O[C@H](COP(=O)(O)OP(=O)(O)OP(=O)(O)O)[C@@H](O)[C@@H]2F)c(=O)[nH]c1=O [2′F-araTTP, 1-(2-deoxy-2-fluoro-β-D-arabino-furanosyl)thymine 5′-triphosphate]
Incorporation of three 2′F-araTTP / 2′F-araCTP (incorporation efficiency): ++++
Order of efficiency of incorporation: dTTP > 2′F-araTTP > 2′F-rUTP > UTP
substrate property for HIV RT (DNA template PF22, compared to 2′F-rUTP and rUTP): excellent substrate
Enzymatic activity during primer extension reactions (Example 2, DNA template PF22, 3x 2′F-araTTP, dCTP): ++++

Nc1ccn([C@@H]2O[C@H](COP(=O)(O)OP(=O)(O)OP(=O)(O)O)[C@@H](O)[C@H]2F)c(=O)n1 [2′F-rCTP, 1-(2-deoxy-2-fluoro-β-D-ribofuranosyl) cytosine 5′-triphosphate, reference compound]
Order of efficiency of incorporation: dCTP~2′F-rCTP ≧ 2′F-araCTP > CTP

Nc1ccn([C@@H]2O[C@H](COP(=O)(O)OP(=O)(O)OP(=O)(O)O)[C@@H](O)[C@@H]2F)c(=O)n1 [2′F-araCTP, 1-(2-deoxy-2-fluoro-β-D-arabinofuranosyl)cytosine 5′-triphosphate]
Incorporation of three 2′F-araTTP / 2′F-araCTP (incorporation efficiency): ++++
Order of efficiency of incorporation: dCTP~2′F-rCTP ≧ 2′F-araCTP > CTP
Enzymatic activity during primer extension reactions (Example 3, DNA template PF24, 3x 2′F-araCTP, dTTP): ++++

Nc1ccn([C@H]2C[C@H](O)[C@@H](COP(=O)(O)OP(=O)(O)OP(=O)(O)O)O2)c(=O)n1 [dCTP]
Order of efficiency of incorporation: dCTP~2′F-rCTP ≧ 2′F-araCTP > CTP

— US20090298708A1, “2'-DEOXY-2'-FLUORO-BETA-D-ARABINONUCLEOSIDE 5'-TRIPHOSPHATES AND THEIR USE IN ENZYMATIC NUCLEIC ACID SYNTHESIS” (priority 2006, published 2009)
